Experimental findings from ChEMBL document CHEMBL1134735, “Synthesis and photodynamic action of diphenyl-2,3-dihydroxychlorin: a potential tumor photosensitizer” (2001) are described below.

Each structure is given as a SMILES string.

This assay can be described thus: The dark toxicity against 543 human galactophore carcinoma cells. It counts as functional.

Take `OC1c2cc3ccc([nH]3)c(-c3ccccc3)c3ccc(cc4nc(c(-c5ccccc5)c(n2)C1O)C=C4)[nH]3` (stereo unspecified): the IC90 is > 32 µg/mL.
